“And” between values parts separate entries of the source, which are not always exact repeats. Identical values can stand only once.
Tests used:
[1] = In vitro dissolution of cyclodextrin based meloxicam compositions under non-sink conditions (standard method); type: physicochemical
Protocol: The following standard method was used for the determination of the solution rate of the drug compositions: In vitro dissolution properties of the cyclodextrin based meloxicam compositions were studied under non-sink conditions in two different buffer systems, pH 1.3 and 7.6, respectively and in deionised water (pH=6.6) at 37° C.
(§1) The stirring rate was 160 r.p.m. […] Sampling time intervals were 5, 10, 15, 30, 45 and 60 minutes.

[2] = In vitro rate of dissolution of meloxicam composition at pH 1.2 (table 9); type: physicochemical; details: 37° C., 60 min
Protocol: The following standard method was used for the determination of the solution rate of the drug compositions: In vitro dissolution properties of the cyclodextrin based […], respectively and in deionised water (pH=6.6) at 37° C.
as §1

SMILES: Cc1cnc(NC(=O)C2=C(O)c3ccccc3S(=O)(=O)N2C)s1 [free meloxicam, meloxicam]
- Dissolved meloxicam in solution ([1]; deionised water (pH = 6.6), 37° C., 5 min): 23 µg/mL
- Dissolved meloxicam in solution ([1]; deionised water (pH = 6.6), 37° C., 10 min): 148 µg/mL
- Dissolved meloxicam in solution ([1]; deionised water (pH = 6.6), 37° C., 15 min): 232 µg/mL
- Dissolved meloxicam in solution ([1]; deionised water (pH = 6.6), 37° C., 30 min): 390 µg/mL
- Dissolved meloxicam in solution ([1]; deionised water (pH = 6.6), 37° C., 45 min): 415 µg/mL
- Dissolved meloxicam in solution ([1]; deionised water (pH = 6.6), 37° C., 60 min): 475 µg/mL
- Dissolved meloxicam in solution ([1]; pH 1.3, 37° C., 5 min (tables 4, 11, 13)): 0.4 µg/mL and 0.30 µg/mL
- Dissolved meloxicam in solution ([1]; pH 1.3, 37° C., 5 min, free meloxicam 130 mg, composition 1300 mg (table 7)): 0.45 µg/mL
- Dissolved meloxicam in solution ([1]; pH 1.3, 37° C., 5 min, free meloxicam 130 mg, composition 1500 mg (tables 5, 6)): 0.45 µg/mL
- Dissolved meloxicam in solution ([1]; pH 1.3, 37° C., 10 min (tables 4, 11, 13)): 0.6 µg/mL and 0.38 µg/mL
- Dissolved meloxicam in solution ([1]; pH 1.3, 37° C., 10 min, free meloxicam 130 mg, composition 1300 mg (table 7)): 0.62 µg/mL
- Dissolved meloxicam in solution ([1]; pH 1.3, 37° C., 10 min, free meloxicam 130 mg, composition 1500 mg (tables 5, 6)): 0.62 µg/mL
- Dissolved meloxicam in solution ([1]; pH 1.3, 37° C., 15 min (tables 4, 11, 13)): 0.7 µg/mL and 0.44 µg/mL
- Dissolved meloxicam in solution ([1]; pH 1.3, 37° C., 15 min, free meloxicam 130 mg, composition 1300 mg (table 7)): 0.67 µg/mL
- Dissolved meloxicam in solution ([1]; pH 1.3, 37° C., 15 min, free meloxicam 130 mg, composition 1500 mg (tables 5, 6)): 0.67 µg/mL
- Dissolved meloxicam in solution ([1]; pH 1.3, 37° C., 30 min (tables 4, 11, 13)): 0.7 µg/mL and 0.56 µg/mL
- Dissolved meloxicam in solution ([1]; pH 1.3, 37° C., 30 min, free meloxicam 130 mg, composition 1300 mg (table 7)): 0.74 µg/mL
- Dissolved meloxicam in solution ([1]; pH 1.3, 37° C., 30 min, free meloxicam 130 mg, composition 1500 mg (tables 5, 6)): 0.74 µg/mL
- Dissolved meloxicam in solution ([1]; pH 1.3, 37° C., 45 min (tables 4, 11, 13)): 0.7 µg/mL and 0.59 µg/mL
- Dissolved meloxicam in solution ([1]; pH 1.3, 37° C., 45 min, free meloxicam 130 mg, composition 1300 mg (table 7)): 0.73 µg/mL
- Dissolved meloxicam in solution ([1]; pH 1.3, 37° C., 45 min, free meloxicam 130 mg, composition 1500 mg (tables 5, 6)): 0.73 µg/mL
- Dissolved meloxicam in solution ([1]; pH 1.3, 37° C., 60 min (tables 4, 11, 13)): 0.6 µg/mL and 0.65 µg/mL
- Dissolved meloxicam in solution ([1]; pH 1.3, 37° C., 60 min, free meloxicam 130 mg, composition 1300 mg (table 7)): 0.67 µg/mL
- Dissolved meloxicam in solution ([1]; pH 1.3, 37° C., 60 min, free meloxicam 130 mg, composition 1500 mg (tables 5, 6)): 0.67 µg/mL
- Dissolved meloxicam in solution ([1]; pH 7.6, 37° C., 5 min (tables 4, 11)): 38 µg/mL
- Dissolved meloxicam in solution ([1]; pH 7.6, 37° C., 5 min, free meloxicam 130 mg, composition 1300 mg (table 7)): 38 µg/mL
- Dissolved meloxicam in solution ([1]; pH 7.6, 37° C., 5 min, free meloxicam 130 mg, composition 1500 mg (tables 5, 6)): 38 µg/mL
- Dissolved meloxicam in solution ([1]; pH 7.6, 37° C., 10 min (tables 4, 11)): 188 µg/mL and 218 µg/mL
- Dissolved meloxicam in solution ([1]; pH 7.6, 37° C., 10 min, free meloxicam 130 mg, composition 1300 mg (table 7)): 218 µg/mL
- Dissolved meloxicam in solution ([1]; pH 7.6, 37° C., 10 min, free meloxicam 130 mg, composition 1500 mg (tables 5, 6)): 218 µg/mL
- Dissolved meloxicam in solution ([1]; pH 7.6, 37° C., 15 min (tables 4, 11)): 320 µg/mL
- Dissolved meloxicam in solution ([1]; pH 7.6, 37° C., 15 min, free meloxicam 130 mg, composition 1300 mg (table 7)): 320 µg/mL
- Dissolved meloxicam in solution ([1]; pH 7.6, 37° C., 15 min, free meloxicam 130 mg, composition 1500 mg (tables 5, 6)): 320 µg/mL
- Dissolved meloxicam in solution ([1]; pH 7.6, 37° C., 30 min (tables 4, 11)): 390 µg/mL
- Dissolved meloxicam in solution ([1]; pH 7.6, 37° C., 30 min, free meloxicam 130 mg, composition 1300 mg (table 7)): 390 µg/mL
- Dissolved meloxicam in solution ([1]; pH 7.6, 37° C., 30 min, free meloxicam 130 mg, composition 1500 mg (tables 5, 6)): 390 µg/mL
- Dissolved meloxicam in solution ([1]; pH 7.6, 37° C., 45 min (tables 4, 11)): 485 µg/mL
- Dissolved meloxicam in solution ([1]; pH 7.6, 37° C., 45 min, free meloxicam 130 mg, composition 1300 mg (table 7)): 485 µg/mL
- Dissolved meloxicam in solution ([1]; pH 7.6, 37° C., 45 min, free meloxicam 130 mg, composition 1500 mg (tables 5, 6)): 485 µg/mL
- Dissolved meloxicam in solution ([1]; pH 7.6, 37° C., 60 min (tables 4, 11)): 550 µg/mL
- Dissolved meloxicam in solution ([1]; pH 7.6, 37° C., 60 min, free meloxicam 130 mg, composition 1300 mg (table 7)): 550 µg/mL
- Dissolved meloxicam in solution ([1]; pH 7.6, 37° C., 60 min, free meloxicam 130 mg, composition 1500 mg (tables 5, 6)): 550 µg/mL
- meloxicam (dissolved) [2]: 0.8 µg/mL

Reference: patent US6284269A, “Pharmaceutical compositions of meloxicam with improved solubility and bioavailability” (Hexal AG, priority 1997, dated 2001)
